According to patent US5446020A (Scios Nova Inc., priority 1993, dated 1995):

Experiments:
rats = assay: euglycemic, hyperinsulinemic clamp with 3H-glucose tracer; type: in vivo; settings: rat clamp
Procedure: Analogs of the invention can be tested in a euglycemic, hyperinsulinemic rat clamp using ^3 H-glucose as a tracer. In accordance with this technique, glucose is infused to maintain euglycemia. […] Using ^3 H-glucose, glucose utilization by the periphery (Rd) and glucose production by the liver (HGO) can be calculated under steady state conditions using the equation of Steel et al., Am. J. Physiol. (1956) 187:15-24, incorporated herein by reference.
Analogs were tested using the euglycemic, hyperinsulinemic clamp method. […] The exogenous glucose was infused at a rate sufficient to maintain euglycemia for the duration of the experiment. Additionally, [D-3-^3 H] glucose (tracer) is infused to assess glucose metabolism (i.e, glucose turnover). The steady state equation of Steele et al. (Am. J. Physiol. (1956) 187:15-241) was used to calculate hepatic glucose output and the rate of glucose disposal. Under steady state conditions, glucose (mg/ml) and ^3 H-glucose (dpm/ml) levels are constant. Under these conditions the rate of glucose appearance (Ra)=rate of glucose disappearance (Rd). At steady state Ra =Rd. Ra is further defined as the rate of glucose entering the glucose pool (approximately the blood volume and other extra-cellular volume). Ra is equal to the rate at which the liver is making glucose plus the rate of any exogenous glucose infusion. Rd is equal to the rate of glucose leaving the pool.
Three main parameters are used to assess the effects of the analogs. The rate of exogenous infusion (i.e., glucose infusion rate, GIR or M) estimates the potency of analog. […] Finally, hepatic glucose output (HGO), reflects the ability of the analogs to suppress the liver's production of glucose.
Four to five days prior to experimentation, 65 mg/kg of sodium pentobarbital was administered intraperitoneally to anesthetize rats. Catheters were inserted in the right jugular vein and left carotid artery. The catheters were routed subcutaneously to the dorsal region of the neck and exteriorized. […] Blood samples were taken from the jugular vein. […] At 10 minute intervals after starting hormone infusion, 50 μl blood samples were taken to determine the plasma glucose level. During infusion of hormone, a 30% glucose solution was infused at an empirically determined rate to maintain the basal glucose level.
Aliquots of whole blood were obtained at -20, -10 and 0 minutes before the clamp was started, and later at 70, 80, and 90 minutes into the clamp and the plasma glucose level determined. Glucose specific activity at these times was also determined as follows: [formula]
The blood was deproteinized with 10% TCA, centrifuged, and an aliquot of supernatant dried in a vacuum oven to evaporate off ^3 H2 O. The ^3 H-glucose levels in the sample were determined using a liquid scintillation counter. Basal Ra (glucose appearance rate) and clamp Ra were calculated by using steady state glucose specific activity (basal: -20, -10 and 0 minutes; clamp: 70, 80, 90 minutes) and the following equation: [formula] Under basal conditions, at steady state, Ra =Rd and Ra hepatic glucose output. Under clamp conditions, at a steady state, Ra =Rd, however under these conditions, Ra =hepatic glucose output plus exogenous glucose infusion rate. Hepatic glucose output under clamp conditions was determined by subtracting the glucose infusion rate from the calculated Rd.

[1] = in vivo; cited from earlier work
[2] = of the potency of native insulin; cited from earlier work
[3] = cited from earlier work

Substance: Insulin: insulin, the comparator hormone infused in the rat clamp
- GIR (glucose infusion rate) (rats; infusion 41.5 ng/kg/min): 1.7 ± 0.6 mg/kg/min
- HGO (hepatic glucose output) (rats; infusion 41.5 ng/kg/min): 11.3 ± 0.3 mg/kg/min
- Rd (rate of glucose disappearance) (rats; infusion 41.5 ng/kg/min): 13.0 ± 0.3 mg/kg/min
- GIR (glucose infusion rate) (rats; infusion 83 ng/kg/min): 6.9 ± 0.8 mg/kg/min
- GIR (glucose infusion rate) (rats; infusion 100 ng/kg/min): 8.8 ± 1.2 mg/kg/min
- HGO (hepatic glucose output) (rats; infusion 100 ng/kg/min): 9.1 ± 0.7 mg/kg/min
- Rd (rate of glucose disappearance) (rats; infusion 100 ng/kg/min): 17.8 ± 1.0 mg/kg/min
- GIR (glucose infusion rate) (rats; infusion 166 ng/kg/min): 19.7 ± 0.5 mg/kg/min
- HGO (hepatic glucose output) (rats; infusion 166 ng/kg/min): 6.4 ± 1.1 mg/kg/min
- Rd (rate of glucose disappearance) (rats; infusion 166 ng/kg/min): 26.1 ± 0.8 mg/kg/min
- GIR (glucose infusion rate) (rats; infusion 415 ng/kg/min): 30.8 ± 1.7 mg/kg/min
- HGO (hepatic glucose output) (rats; infusion 415 ng/kg/min): 3.5 ± 0.7 mg/kg/min
- Rd (rate of glucose disappearance) (rats; infusion 415 ng/kg/min): 34.3 ± 1.6 mg/kg/min
- circulating half-life [1]: 4 min

Substance: Proinsulin: single chain peptide precursor of insulin synthesized in the islets of Langerhans
- potency relative to native insulin when assayed in vitro [2]: 1-2%
- circulating half-life [1]: 30 min
- potency relative to insulin in vivo ([3]; of the potency of insulin): about 15%
- in vivo hepatoselectivity, more than that of insulin ([3]; relative to insulin per se): 50%
